Source: patent US5112846A, “N-hydroxyamide, N-hydroxythioamide, hydroxyurea, and N-hydroxythiourea derivatives of selected nsaids as antiinflammatory agents” (Warner-Lambert Company, priority 1990, dated 1992)
Where two headings read alike, the source gives them in different places. One block for each molecule: values may come before it.

Experiments:
[1] = molecular target: T1, 5-Lipoxygenase (Rattus norvegicus, UniProt P12527); assay: ARBL whole cell 5-lipoxygenase assay (LTB4 formation in RBL-1 cells, A23187 stimulated); assay type: cell-based; settings: for IC50: read-out: ARBL IC50 (inhibition of LTB4 formation)
T1 construct: host or cells: RBL-1 rat basophilic leukemia cells
T1 sequence (P12527 1-673): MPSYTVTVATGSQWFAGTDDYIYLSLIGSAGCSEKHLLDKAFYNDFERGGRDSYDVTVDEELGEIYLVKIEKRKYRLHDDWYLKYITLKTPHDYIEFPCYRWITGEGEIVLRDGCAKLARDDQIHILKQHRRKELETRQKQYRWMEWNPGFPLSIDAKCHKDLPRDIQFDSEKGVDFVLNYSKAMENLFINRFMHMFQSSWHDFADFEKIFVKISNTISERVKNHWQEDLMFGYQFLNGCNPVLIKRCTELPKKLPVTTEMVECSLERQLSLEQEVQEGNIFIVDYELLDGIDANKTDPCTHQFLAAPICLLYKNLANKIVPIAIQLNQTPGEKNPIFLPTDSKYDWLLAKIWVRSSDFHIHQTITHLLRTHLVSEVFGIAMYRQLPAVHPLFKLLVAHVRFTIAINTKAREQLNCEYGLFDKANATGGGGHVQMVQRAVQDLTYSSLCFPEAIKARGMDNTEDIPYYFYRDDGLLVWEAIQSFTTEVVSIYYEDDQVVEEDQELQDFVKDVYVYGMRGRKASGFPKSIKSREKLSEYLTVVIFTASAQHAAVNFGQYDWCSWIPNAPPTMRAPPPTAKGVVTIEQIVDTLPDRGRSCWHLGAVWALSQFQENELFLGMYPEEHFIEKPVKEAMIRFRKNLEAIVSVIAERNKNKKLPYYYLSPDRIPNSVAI
Description: (§1) ARBL/ARBC Whole Cell 5-Lipoxygenase and Cyclooxygenase Assays
(§2) The rat basophilic leukemia cell line (RBL-1) was obtained from the American Type Culture Collection (Rockville, MD).
(§3) Radioimmunoassay (RIA) kits of LTB4 and PGF2α were obtained from Amersham (Arlington Heights, IL) and Seragen (Boston, MA), respectively.
(§4) RBL-1 cells are grown in suspension culture in Eagle's minimum essential medium supplemented with 12% fetal bovine serum at 37° C. in an incubator supplied with air-5% carbon dioxide. Cells are harvested by centrifugation. They are washed with cold phosphate buffered saline pH 7.4 (PBS; NaCl, 7.1 g; Na2 HPO4, 1.15 g; KH2 PO4, 0.2 g; and KCl, 0.2 g/l). Cells are finally suspended in PBS containing 1.0 mM calcium at a density of 2×10^6 cells/ml. Cells are incubated with and without test agent (in DMSO) (1% DMSO is without effect on arachidonic acid metabolism) for ten minutes at room temperature. Calcium ionophore A23187 (5 μM) is added and cells are incubated for seven minutes at 37° C. The reaction is stopped by chilling the tubes on ice for ten minutes. Cells are separated by centrifugation and the supernatant is stored at -20° C. Aliquots (100 μl) are analyzed for LTB4 and PGF2α using radioimmunoassay kits as provided by the supplier.
(§5) Tables 1-4 contain biochemical data obtained from this whole cell assay either as IC50 s which are calculated as the amount of test compound causing 50% inhibition of LTB4 or PGF2α formation or % inhibition of LTB4 or PGF2α at the indicated amount expressed as μM.

[2] = molecular target: T2, Cyclooxygenase (Rattus norvegicus, UniProt Q63921); assay: ARBC whole cell cyclooxygenase assay (PGF2α formation in RBL-1 cells, A23187 stimulated); assay type: cell-based; settings: for IC50: read-out: ARBC IC50 (inhibition of PGF2α formation)
T2 construct: host or cells: RBL-1 rat basophilic leukemia cells
T2 sequence (Q63921 27-602): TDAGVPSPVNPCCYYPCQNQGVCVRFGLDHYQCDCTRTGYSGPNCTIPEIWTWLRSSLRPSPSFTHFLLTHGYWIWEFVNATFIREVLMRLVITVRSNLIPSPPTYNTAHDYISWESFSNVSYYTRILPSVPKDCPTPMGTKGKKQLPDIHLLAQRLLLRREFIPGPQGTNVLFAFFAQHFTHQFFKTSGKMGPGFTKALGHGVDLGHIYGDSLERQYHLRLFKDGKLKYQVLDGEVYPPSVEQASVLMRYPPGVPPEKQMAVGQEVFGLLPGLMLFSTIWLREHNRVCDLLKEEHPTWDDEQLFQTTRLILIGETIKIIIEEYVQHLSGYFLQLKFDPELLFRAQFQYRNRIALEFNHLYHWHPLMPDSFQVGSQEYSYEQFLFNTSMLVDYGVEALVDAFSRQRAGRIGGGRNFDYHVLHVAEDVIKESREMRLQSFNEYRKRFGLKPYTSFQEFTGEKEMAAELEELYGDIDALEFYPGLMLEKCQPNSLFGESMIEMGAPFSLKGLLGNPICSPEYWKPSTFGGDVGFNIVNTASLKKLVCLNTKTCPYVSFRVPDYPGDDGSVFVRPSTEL
Description: as §1, §2, §3, §4, §5

[3] = RBL-1 cells, read-out: ARBL % inhibition of LTB4
[4] = RBL-1, Table 2, read-out: ARBC % inhibition (N)
[5] = RBL-1 cells, read-out: ARBC % inhibition of PGF2α
[6] = RBL-1, Table 1, read-out: ARBC % inhibition (N)

IC50 ([1]; RBL-1 cells): 280 nM
IC50 ([2]; RBL-1 cells): 5200 nM
SMILES: CC(=O)N(O)Cc1ccccc1Nc1cccc(C(F)(F)F)c1 [Example 55]

inhibition at 16 µM [1, 3]: 100%
inhibition at 16 µM [2, 5]: 50%
SMILES: C=CCNC(=O)N(O)Cc1c(C)n(C(=O)c2ccc(Cl)cc2)c2ccc(OC)cc12 [Example 71, 1-(4-Chlorobenzoyl)-N-hydroxy-5-methoxy-2-methyl-N-[(2-propenylamino)carbonyl]-1H-indole-3-methanamine]

IC50 ([1]; RBL-1 cells): 1300 nM
IC50 ([2]; RBL-1 cells): 9400 nM
SMILES: COC(=O)CCC(=O)N(O)Cc1c(C)n(C(=O)c2ccc(Cl)cc2)c2ccc(OC)cc12 [Example 65, 4-[[[1-(4-Chlorobenzoyl)-5-methoxy-2-methyl-1H-indol-3-yl]methyl]hydroxyamino]-4-oxo-butanoic acid, methyl ester]

inhibition at 16 µM ([1]; RBL-1, Table 4, read-out: ARBL % inhibition (N @ 16)): < 40%
SMILES: COc1ccc2c(c1)c(CN(O)C(=O)CCC(=O)O)c(C)n2C(=O)c1ccc(Cl)cc1 [Example 66, 4-[[[1-(4-Chlorobenzoyl)-5-methoxy-2-methyl-1H-indol-3-yl]methyl]hydroxyamino]-4-oxo-butanoic acid]

IC50 ([1]; RBL-1 cells): 2500 nM
SMILES: CNC(=O)N(O)Cc1c(C)n(C(=O)c2ccc(Cl)cc2)c2ccc(OC)cc12 [Example 69, 1-(4-Chlorobenzoyl)-N-hydroxy-5-methoxy-2-methyl-N-[(methylamino)carbonyl]-1H-indole-3-methanamine]

IC50 ([1]; RBL-1 cells): 510 nM
inhibition at 16 µM [2, 4]: < 40%
SMILES: CNC(=O)N(O)Cc1ccc2c(c1)OCc1ccccc1C2=O [Example 20, N-[(6,11-Dihydro-11-oxodibenz[b,e]oxepin-3-yl)methyl]-N-hydroxy-N'-methylurea]

inhibition at 16 µM [1, 3]: 98%
SMILES: COc1ccc2c(c1)c(CN(O)C(N)=O)c(C)n2C(=O)c1ccc(Cl)cc1 [Example 68, N-(Aminocarbonyl)-1-(4-chlorobenzoyl)-N-hydroxy-5-methoxy-2-methyl-1H-indole-3-methanamine]

IC50 ([1]; RBL-1 cells): 1800 nM
inhibition at 32 µM ([2]; RBL-1, at 32 μM, Table 3, read-out: ARBC % inhibition (N @ 32)): < 40%
SMILES: CC(=O)N(O)C(C)c1ccccc1Nc1c(Cl)ccc(C)c1Cl (centres unmarked) [Example 53, N-[1-[2-[(2,6-dichloro-3-methylphenyl)amino]phenyl]ethyl]-N-hydroxyacetamide]

inhibition at 16 µM [1, 3]: 100%
inhibition at 16 µM [2, 5]: 73%
SMILES: COc1ccc2c(c1)c(CN(O)C(=O)N(C)C)c(C)n2C(=O)c1ccc(Cl)cc1 [Example 70, 1-(4-Chlorobenzoyl)-N-[(dimethylamino)carbonyl]-N-hydroxy-5-methoxy-2-methyl-1H-indole-3-methanamine]

IC50 ([2]; RBL-1 cells): 16000 nM
SMILES: COC(=O)N(O)Cc1c(C)n(C(=O)c2ccc(Cl)cc2)c2ccc(OC)cc12 [Example 67, [[1-(4-Chlorobenzoyl)-5-methoxy-2-methyl-1H-indol-3-yl]methyl]hydroxycarbamic acid, methyl ester]

inhibition at 16 µM [1, 3]: 98%
SMILES: CCOC(=O)NC(=O)N(O)Cc1c(C)n(C(=O)c2ccc(Cl)cc2)c2ccc(OC)cc12 [Example 72, [[[[1-(4-Chlorobenzoyl)-5-methoxy-2-methyl-1H-indol-3-yl]methyl]hydroxyamino]carbonyl]carbamic acid, ethyl ester]

inhibition at 16 µM [1, 3]: 100%
SMILES: CCOC(=O)CNC(=O)N(O)Cc1c(C)n(C(=O)c2ccc(Cl)cc2)c2ccc(OC)cc12 [Example 73, N-[[[[1-(4-Chlorobenzoyl)-5-methoxy-2-methyl-1H-indol-3-yl]methyl]hydroxyamino]carbonyl]glycine, ethyl ester]

IC50 ([2]; RBL-1 cells): 15000 nM
SMILES: COc1ccc2c(c1)c(CN(O)C(C)=O)c(C)n2C(=O)c1ccc(Cl)cc1 [Example 63, N-[[1-(4-Chlorobenzoyl)-5-methoxy-2-methyl-1H-indole-3-yl]methyl]-N-hydroxyacetamide]

Further lines, the molecule ahead of its results:

SMILES: CCOC(=O)C(=O)N(O)Cc1ccc2c(c1)OCc1ccccc1C2=O [Example 19, Ethyl[[(6,11-Dihydro-11-oxodibenz[b,e]oxepin-3-yl)methyl]hydroxyamino]oxoacetate]
inhibition at 16 µM [1, 3]: 84%
inhibition at 16 µM [2, 4]: < 40%

SMILES: CC(NO)c1ccc2c(c1)Cc1ccccc1-2 (stereo not drawn) [Example 7, N-Hydroxy-α-methyl-9H-fluorene-2-methanamine]
inhibition at 16 µM [1, 3]: 100%
inhibition at 16 µM [2, 5]: 89%

SMILES: CCNC(=O)N(O)C(C)c1ccc2c(c1)Cc1ccccc1-2 (centres unmarked) [Example 9, N'-Ethyl-N-(1-(9H-fluoren-2-yl)ethyl)-N-hydroxyurea]
inhibition at 16 µM [1, 3]: 100%
inhibition at 16 µM [2, 5]: 49%

SMILES: CC(C)C(=O)N(O)Cc1ccc2c(c1)OCc1ccccc1C2=O [Example 17, N[(6,11-Dihydro-11-oxodibenz[b,el]oxepin-3-yl)methyl]N-hydroxy-2-methylpropanamide]
inhibition at 16 µM [1, 3]: 100%
IC50 ([2]; RBL-1 cells): 5800 nM

SMILES: CC(=O)N(O)Cc1ccc2c(c1)Cc1ccccc1-2 [Example 4, N-(9H-Fluoren-2-ylmethyl)-N-hydroxy-acetamide]
inhibition at 16 µM [1, 3]: 100%
IC50 ([2]; RBL-1 cells): 12000 nM

SMILES: CCOC(=O)N(O)C(C)c1ccc2c(c1)Cc1ccccc1-2 (stereo not drawn) [Example 12, N-Hydroxy-alpha-methyl-9H-fluorene-2-methanamine carbamic acid, ethyl ester]
inhibition at 16 µM [1, 3]: 95%
inhibition at 16 µM [2, 5]: 79%

SMILES: CCOC(=O)C(=O)N(O)Cc1ccc2c(c1)Cc1ccccc1-2 [Example 2, (9H-Fluoren-2-ylmethyl)hydroxyamino-oxo-acetic acid, ethyl ester]
inhibition at 16 µM [1, 3]: 96%
inhibition at 16 µM [2, 6]: < 40%

SMILES: CC(C)C(=O)N(O)Cc1ccc2c(c1)Cc1ccccc1-2 [Example 5, N-(9H-Fluoren-2-ylmethyl)-N-hydroxy-2-methyl-propanamide]
inhibition at 16 µM [1, 3]: 99%
inhibition at 16 µM [2, 6]: < 40%

SMILES: CC(=O)N(O)C(C)c1ccc2c(c1)Cc1ccccc1-2 (centres unmarked) [Example 11, N-(1-(9H-Fluoren-2-yl)ethyl)-N-hydroxy-acetamide]
IC50 ([1]; RBL-1 cells): 760 nM
inhibition at 16 µM [2, 6]: < 40%

SMILES: CC(C)C(=O)N(O)C(C)c1ccc2c(c1)Cc1ccccc1-2 (centres unmarked) [Example 13]
inhibition at 16 µM [1, 3]: 90%
inhibition at 16 µM [2, 6]: < 40%

SMILES: CNC(=O)N(O)C(C)c1ccc2c(c1)Cc1ccccc1-2 (centres unmarked) [Example 8, N-(1-(9H-Fluoren-2-yl)ethyl)-N-hydroxy-N'-methylurea]
IC50 ([1]; RBL-1 cells): 910 nM
inhibition at 16 µM [2, 6]: < 40%

SMILES: ONCc1ccc2c(c1)Cc1ccccc1-2 [Example 1, N-Hydroxy-9H-fluorene-2-methanamine]
inhibition at 16 µM [1, 3]: 97%
inhibition at 16 µM [2, 5]: 76%

SMILES: CNC(=S)N(O)C(C)c1ccc2c(c1)Cc1ccccc1-2 (centres unmarked) [Example 10, N-(1-(9H-Fluoren-2-yl)ethyl)-N-hydroxy-N'-methylthiourea]
inhibition at 16 µM [1, 3]: 100%
inhibition at 16 µM [2, 5]: 59%

SMILES: CCNC(=S)N(O)C(C)c1ccc2c(c1)Cc1ccccc1-2 (centres unmarked) [Example 14, N-(1-(9H-Fluoren-2-yl)ethyl)-N-hydroxy-N'-ethylthiourea]
inhibition at 0.25 µM ([1]; at 0.25 μM, RBL-1 cells): 56%
inhibition at 16 µM [2, 6]: < 40%
